{"source": "BindingDB's records for doi:10.1124/jpet.301.1.322", "about": "(Sanofi Synthelabo, 2002)", "key": {"[1]": {"target": "T1, Corticotropin-releasing factor receptor 1 (Rattus norvegicus, UniProt P35353)", "T1 sequence (P35353 whole entry)": "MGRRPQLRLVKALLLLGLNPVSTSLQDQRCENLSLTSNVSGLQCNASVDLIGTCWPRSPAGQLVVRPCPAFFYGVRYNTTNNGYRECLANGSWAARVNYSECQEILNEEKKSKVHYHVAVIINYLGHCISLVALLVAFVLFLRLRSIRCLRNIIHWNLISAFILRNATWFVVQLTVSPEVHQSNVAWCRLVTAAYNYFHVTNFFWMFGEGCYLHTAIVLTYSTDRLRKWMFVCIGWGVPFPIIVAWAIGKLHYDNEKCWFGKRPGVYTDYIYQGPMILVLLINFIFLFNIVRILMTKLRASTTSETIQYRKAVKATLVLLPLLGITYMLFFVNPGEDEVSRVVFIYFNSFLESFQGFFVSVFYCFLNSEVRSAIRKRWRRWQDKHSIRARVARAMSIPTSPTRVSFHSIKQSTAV"}, "[2]": {"target": "T2, Corticotropin-releasing factor receptor 1 (Homo sapiens, UniProt P34998)", "T2 sequence (P34998 whole entry)": "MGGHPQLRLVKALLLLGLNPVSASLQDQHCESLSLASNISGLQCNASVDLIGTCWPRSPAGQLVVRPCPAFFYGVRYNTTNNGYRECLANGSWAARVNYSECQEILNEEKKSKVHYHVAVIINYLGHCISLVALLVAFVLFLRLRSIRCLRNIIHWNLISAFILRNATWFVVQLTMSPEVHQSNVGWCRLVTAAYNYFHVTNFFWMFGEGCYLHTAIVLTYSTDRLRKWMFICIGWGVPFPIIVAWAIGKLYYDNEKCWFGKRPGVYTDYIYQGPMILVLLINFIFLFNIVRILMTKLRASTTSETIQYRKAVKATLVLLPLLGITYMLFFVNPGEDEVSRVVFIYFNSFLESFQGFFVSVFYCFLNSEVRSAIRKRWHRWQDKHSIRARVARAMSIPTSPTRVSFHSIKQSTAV"}, "[3]": {"target": "T3, Corticotropin-releasing factor receptor 1 (Mus musculus, UniProt P35347)", "T3 sequence (P35347 whole entry)": "T1 sequence (P35353 whole entry) with R3Q, R29Q, N32S, T36A, V118I, H252Y"}}, "note": "Positions count from the first letter of the chain named. Values joined by “and” are separate entries in the source; they are usually repeats but may differ in a detail not shown here. Equal entries are not always repeated."}
{"smiles": "Cc1ccccc1C(=O)Nc1ccc(C(=O)N2CCCC(O)c3cc(Cl)ccc32)c(C)c1", "note": "(stereo not drawn)", "values": [{"measurement": "Ki", "setting": "[1]", "value": "1.7 nM and 1 nM"}, {"measurement": "Ki", "setting": "[2]", "value": 0.83, "unit": "nM"}, {"measurement": "Ki", "setting": "[3]", "value": 1.26, "unit": "nM"}]}
